Literature values, collected in patent publication US20120128730A1, “COMPOSITIONS AND METHODS FOR ONCE-DAILY TREATMENT OF OBSESSIVE COMPULSIVE DISORDER WITH ONDANSETRON” (priority 2010, published 2012).

Test system: mesenteric bed or the nerves in the heart
Details: animal studies

## Cc1nccn1CC1CCc2c(c3ccccc3n2C)C1=O (stereo not shown) [ondansetron]
  effect on the mesenteric bed or the nerves in the heart: did not appear to have effect
